Measured values as given in PubChem BioAssay (NCI).
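Dose response: 5 concentrations. Exposure: 48 h. Format: 96-well plates. Endpoint: linear interpolation; highest concentration if not reached. Here, GI50 denotes the concentration required for 50% inhibition of growth. Definition used: TGI = concentration required for complete inhibition of growth.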

How the values were obtained:
Assay in all cases: NCI anticancer screen, dose series, 48 h
HOP-92 NSCLC = test system: HOP-92 NSCLC
NCI-H23 lung = test system: NCI-H23 lung
CCRF-CEM leukemia = test system: CCRF-CEM leukemia
OVCAR-5 ovarian = test system: OVCAR-5 ovarian
SK-OV-3 ovarian = test system: SK-OV-3 ovarian
HT29 colon = test system: HT29 colon
T-47D breast = test system: T-47D breast
SF-539 CNS = test system: SF-539 CNS
NCI-H460 lung = test system: NCI-H460 lung
HCT-116 colon = test system: HCT-116 colon
HCT-15 colon = test system: HCT-15 colon
CAKI-1 renal = test system: CAKI-1 renal
MOLT-4 leukemia = test system: MOLT-4 leukemia
SW-620 colon = test system: SW-620 colon
MALME-3M melanoma = test system: MALME-3M melanoma
A549 NSCLC = test system: A549 NSCLC
UACC-62 melanoma = test system: UACC-62 melanoma
HOP-62 NSCLC = test system: HOP-62 NSCLC
BT-549 breast = test system: BT-549 breast
HCC-2998 colon = test system: HCC-2998 colon
DU-145 prostate = test system: DU-145 prostate
OVCAR-3 ovarian = test system: OVCAR-3 ovarian
SNB-19 CNS = test system: SNB-19 CNS
SR leukemia = test system: SR leukemia
NCI-H226 lung = test system: NCI-H226 lung
MDA-MB-468 breast = test system: MDA-MB-468 breast
NCI/ADR-RES ovarian = test system: NCI/ADR-RES ovarian
UO-31 renal = test system: UO-31 renal
SK-MEL-5 melanoma = test system: SK-MEL-5 melanoma
RPMI-8226 leukemia = test system: RPMI-8226 leukemia
SF-268 CNS = test system: SF-268 CNS
A498 renal = test system: A498 renal
MCF7 breast = test system: MCF7 breast
NCI-H522 lung = test system: NCI-H522 lung
OVCAR-8 ovarian = test system: OVCAR-8 ovarian
K-562 leukemia = test system: K-562 leukemia
UACC-257 melanoma = test system: UACC-257 melanoma
ACHN renal = test system: ACHN renal
OVCAR-4 ovarian = test system: OVCAR-4 ovarian
MDA-MB-231 breast = test system: MDA-MB-231 breast
HL-60(TB) leukemia = test system: HL-60(TB) leukemia
SK-MEL-2 melanoma = test system: SK-MEL-2 melanoma
LOX IMVI melanoma = test system: LOX IMVI melanoma
EKVX NSCLC = test system: EKVX NSCLC
U251 CNS = test system: U251 CNS
PC-3 prostate = test system: PC-3 prostate
SNB-75 CNS = test system: SNB-75 CNS
SK-MEL-28 melanoma = test system: SK-MEL-28 melanoma
MDA-MB-435 = test system: MDA-MB-435
RXF 393 renal = test system: RXF 393 renal
786-0 renal = test system: 786-0 renal
SN12C renal = test system: SN12C renal
IGROV1 ovarian = test system: IGROV1 ovarian
KM12 colon = test system: KM12 colon
HS 578T breast = test system: HS 578T breast
M14 melanoma = test system: M14 melanoma
SF-295 CNS = test system: SF-295 CNS
COLO 205 colon = test system: COLO 205 colon
TK-10 renal = test system: TK-10 renal

## CS(=O)(=O)Nc1cncc(-c2ccc3ncnc(NCc4ccccc4)c3c2)c1
HOP-92 NSCLC
  GI50: 3.92 µM
  TGI: 20.1 µM
NCI-H23 lung
  GI50: 12.7 µM
  TGI: 28.1 µM
CCRF-CEM leukemia
  GI50: 4.58 µM
  TGI: 33.3 µM
OVCAR-5 ovarian
  GI50: 12.3 µM
  TGI: 32.9 µM
SK-OV-3 ovarian
  GI50: 15.5 µM
  TGI: 34.9 µM
HT29 colon
  GI50: 14.4 µM
  TGI: 30 µM
T-47D breast
  GI50: 2.85 µM
  TGI: 12.7 µM
SF-539 CNS
  GI50: 11.9 µM
  TGI: 27.6 µM
NCI-H460 lung
  GI50: 25.6 µM
  TGI: 94.3 µM
HCT-116 colon
  GI50: 13.9 µM
  TGI: 29.1 µM
HCT-15 colon
  GI50: 23.3 µM
  TGI: 98.3 µM
CAKI-1 renal
  GI50: 12.8 µM
  TGI: 30.2 µM
MOLT-4 leukemia
  GI50: 5.53 µM
  TGI: 74 µM
SW-620 colon
  GI50: 17.1 µM
  TGI: 41.6 µM
MALME-3M melanoma
  GI50: 4.17 µM
  TGI: 21.5 µM
A549 NSCLC
  GI50: 15.5 µM
  TGI: 31.7 µM
UACC-62 melanoma
  GI50: 7.19 µM
  TGI: 20.4 µM
HOP-62 NSCLC
  GI50: 12.2 µM
  TGI: 35 µM
BT-549 breast
  GI50: 3.63 µM
  TGI: 21.5 µM
HCC-2998 colon
  GI50: 11.5 µM
  TGI: 23.8 µM
DU-145 prostate
  GI50: 22.2 µM
  TGI: > 100 µM
OVCAR-3 ovarian
  GI50: 5.93 µM
  TGI: 21.6 µM
SNB-19 CNS
  GI50: 9.74 µM
  TGI: 26.2 µM
SR leukemia
  GI50: 8.84 µM
  TGI: 40.3 µM
NCI-H226 lung
  GI50: 14 µM
  TGI: 37.1 µM
MDA-MB-468 breast
  GI50: 2.14 µM
  TGI: 8.25 µM
NCI/ADR-RES ovarian
  GI50: > 100 µM
  TGI: > 100 µM
UO-31 renal
  GI50: 12.1 µM
  TGI: 36.5 µM
SK-MEL-5 melanoma
  GI50: 12.9 µM
  TGI: 25.6 µM
RPMI-8226 leukemia
  GI50: 15.1 µM
  TGI: 38 µM
SF-268 CNS
  GI50: 10.5 µM
  TGI: 36.7 µM
A498 renal
  GI50: 13.1 µM
  TGI: 36.1 µM
MCF7 breast
  GI50: 4.56 µM
  TGI: 24.6 µM
NCI-H522 lung
  GI50: 4.21 µM
  TGI: 18.9 µM
OVCAR-8 ovarian
  GI50: 19.1 µM
  TGI: 79 µM
K-562 leukemia
  GI50: 18.7 µM
  TGI: > 100 µM
UACC-257 melanoma
  GI50: 13.8 µM
  TGI: 51.6 µM
ACHN renal
  GI50: 20.2 µM
  TGI: > 100 µM
OVCAR-4 ovarian
  GI50: 12.2 µM
  TGI: 50.2 µM
MDA-MB-231 breast
  GI50: 12.3 µM
  TGI: 27 µM
HL-60(TB) leukemia
  GI50: 10.3 µM
  TGI: 40.9 µM
SK-MEL-2 melanoma
  GI50: 5.75 µM
  TGI: 19.3 µM
LOX IMVI melanoma
  GI50: 11.9 µM
  TGI: 24.2 µM
EKVX NSCLC
  GI50: 12.9 µM
  TGI: 31.4 µM
U251 CNS
  GI50: 7.54 µM
  TGI: 41 µM
PC-3 prostate
  GI50: 14.6 µM
  TGI: 38.3 µM
SNB-75 CNS
  GI50: 6.7 µM
  TGI: 32.8 µM
SK-MEL-28 melanoma
  GI50: 11 µM
  TGI: 38.3 µM
MDA-MB-435
  GI50: 10.8 µM
  TGI: 27.4 µM
RXF 393 renal
  GI50: 10.8 µM
  TGI: 26.6 µM
786-0 renal
  GI50: 15 µM
  TGI: 37.3 µM
SN12C renal
  GI50: 12.4 µM
  TGI: 39.1 µM
IGROV1 ovarian
  GI50: 7.73 µM
  TGI: 22.9 µM
KM12 colon
  GI50: 14.2 µM
  TGI: 30 µM
HS 578T breast
  GI50: 3.36 µM
  TGI: 20.5 µM
M14 melanoma
  GI50: 14.6 µM
  TGI: 45.7 µM
SF-295 CNS
  GI50: 16.4 µM
  TGI: 39.4 µM
COLO 205 colon
  GI50: 13.2 µM
  TGI: 26.6 µM
TK-10 renal
  GI50: 10.7 µM
  TGI: 29.9 µM
